Each structure is given as a SMILES string. Where a name gives a salt, the structure may show the parent alone.

The target in this assay is T1, human DβH (Homo sapiens, UniProt P09172).
T1 construct: SK-N-SH cells (ATCC HTB-11), a human neuroblastoma derived cell line, were used as a source of human DβH; host or cells: SK-N-SH cells
T1 sequence (P09172 1-617): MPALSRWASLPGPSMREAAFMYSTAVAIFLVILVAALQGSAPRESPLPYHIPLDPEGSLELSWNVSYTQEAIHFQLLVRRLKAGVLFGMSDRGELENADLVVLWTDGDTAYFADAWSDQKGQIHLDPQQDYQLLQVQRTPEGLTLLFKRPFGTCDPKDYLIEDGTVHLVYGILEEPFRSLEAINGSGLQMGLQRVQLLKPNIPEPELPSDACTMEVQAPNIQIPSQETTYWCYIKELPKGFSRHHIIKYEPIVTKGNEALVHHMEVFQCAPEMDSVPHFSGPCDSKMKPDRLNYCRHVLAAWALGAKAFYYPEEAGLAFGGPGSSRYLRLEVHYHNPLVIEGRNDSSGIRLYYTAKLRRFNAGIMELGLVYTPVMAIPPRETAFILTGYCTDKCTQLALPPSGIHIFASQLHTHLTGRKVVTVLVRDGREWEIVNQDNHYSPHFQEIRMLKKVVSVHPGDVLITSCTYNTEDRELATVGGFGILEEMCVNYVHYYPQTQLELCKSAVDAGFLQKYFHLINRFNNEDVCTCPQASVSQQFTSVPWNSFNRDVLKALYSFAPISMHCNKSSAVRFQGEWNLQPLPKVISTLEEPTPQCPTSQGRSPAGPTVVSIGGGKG
As to the kind of experiment: DβH activity (β-hydroxylation of dopamine to noradrenaline) in SK-N-SH cells. In kind it is cell-based. Particulars: for DβH activity in SK-N-SH cells, Mean ± SEM: compound 5 μM, 50 mM dopamine; for inhibition of DβH activity (in words): 5 μM, as listed in Table 1; for remaining activity at 5 µM: SK-N-SH, 0.75 h, read-out: DβH activity in SK-N-SH cells, Mean ± SEM; for IC50 values against human DβH activity (in words): concentration-dependent decrease in β-hydroxylation of dopamine; for IC50: read-out: IC50 for inhibition of DβH in SK-N-SH cells. On the procedure:
SK-N-SH cells (ATCC HTB-11), a human neuroblastoma derived cell line, were used as a source of human DβH. SK-N-SH cells cultured in 24 well plates were preincubated for 20 min in a reaction medium containing 200 mM sodium acetate, 30 mM N-ethylmaleimide, 5 μM copper sulphate, 0.5 mg/ml catalase aqueous solution, 1 mM pargyline, 10 mM sodium fumarate and 20 mM ascorbic acid. […] During preincubation and incubation, the cells were continuously shaken and maintained at 37° C. The reaction was terminated by the addition of 0.2 M perchloric acid. The acidified samples were stored at 4° C. before injection into the high pressure liquid chromatograph for the assay of noradrenaline.

Consider `COc1ccc2c(c1)C[C@@H](n1c(CCN)c[nH]c1=S)CS2.Cl` (racemic) [Compound 30, (R,S)-5-(2-aminoethyl)-1-(6-methoxythiochroman-3-yl)-1,3-droimidazole-2-thione hydrochloride], for which the “DβH activity in SK-N-SH cells, Mean ± SEM” value is on record as 99.4 ± 2.8 % of control.

With `Cl.NCCc1c[nH]c(=S)n1[C@H]1CSc2ccc(O)cc2C1` (racemic) [Compound 31, (R,S)-5-(2-aminoethyl)-1-(6-hydroxythiochroman-3-yl)-1,3-dihydroimidazole-2-thione hydrochloride], the “DβH activity in SK-N-SH cells, Mean ± SEM” value was 27.3 ± 0.4 % of control.

Usually IC50 stands for the point on the concentration scale where inhibition reaches its midpoint. Take `Cl.NCCc1c[nH]c(=S)n1[C@H]1CCc2c(F)cc(F)cc2C1` [Compound 2, (S)-5-(2-aminoethyl)-1-(5,7-difluoro-1,2,3,4-tetrahydronaphthalen-2-yl)-1,3-dihydroimidazole-2-thione hydrochloride]: the “inhibition of DβH activity (in words)” value is “markedly inhibit”, the remaining activity at 5 µM was 1.6 ± 0.3%, the “IC50 values against human DβH activity (in words)” value is “low nM range” and the IC50 worked out at 60 nM.

Take `Cl.NCc1c[nH]c(=S)n1[C@H]1COc2c(F)cc(F)cc2C1` [Compound 3, (R)-5-aminomethyl-1-(6,8-difluorochroman-3-yl)-1,3-dihydroimidazole-2-thione hydrochloride]: the “inhibition of DβH activity (in words)” value is listed as “markedly inhibit”, the remaining activity at 5 µM was 4.1 ± 0.6%, the “IC50 values against human DβH activity (in words)” value is reported as “low nM range” and the IC50 was determined as 91 nM.

Take `Cl.NCCCc1c[nH]c(=S)n1[C@H]1CCc2c(F)cc(F)cc2C1` [Compound 5, (S)-5-(3-aminopropyl)-1-(5,7-difluoro-1,2,3,4-tetrahydronaphthalen-2-yl)-1,3-dihydroimidazole-2-thione hydrochloride]: the “inhibition of DβH activity (in words)” value is “markedly inhibit” and the remaining activity at 5 µM was 8.1 ± 0.3%.

On to `Cl.NCCc1c[nH]c(=S)n1[C@H]1COc2c(F)cccc2C1` [Compound 6, (R)-5-(2-aminoethyl)-1-(8-fluorochroman-3-yl)-1,3-dihydroimidazole-2-thione hydrochloride], for which the “inhibition of DβH activity (in words)” value is listed as “markedly inhibit” and the remaining activity at 5 µM amounted to 6.9 ± 0.6%.

As for `Cl.NCCc1c[nH]c(=S)n1[C@H]1COc2ccc(F)cc2C1` [Compound 7, (R)-5-(2-aminoethyl)-1-(6-fluorochroman-3-yl)-1,3-dihydroimidazole-2-thione hydrochloride], the “inhibition of DβH activity (in words)” value was “markedly inhibit” and the remaining activity at 5 µM is 8 ± 0.1%.

On to `Cl.NCCc1c[nH]c(=S)n1[C@H]1COc2cc(F)c(F)cc2C1` [Compound 8, (R)-5-(2-aminoethyl)-1-(6,7-difluorochroman-3-yl)-1,3-dihydroimidazole-2-thione hydrochloride], for which the “inhibition of DβH activity (in words)” value is given as “markedly inhibit” and the remaining activity at 5 µM came out at 9.4 ± 0.7%.

For `NCCc1c[nH]c(=S)n1[C@@H]1COc2c(F)cc(F)cc2C1` [Compound 9, (S)-5-(2-aminoethyl)-1-(6,8-difluorochroman-3-yl)-1,3-dihydroimidazole-2-thione hydrochloride], the remaining activity at 5 µM was 50.2 ± 1.9%.

Consider `Cl.NCCc1c[nH]c(=S)n1[C@H]1COc2c(cc(F)c(F)c2F)C1` [Compound 10, (R)-5-(2-aminoethyl)-1-(6,7,8-trifluorochroman-3-yl)-1,3-dihydroimidazole-2-thione hydrochloride], for which the “inhibition of DβH activity (in words)” value is given as “markedly inhibit” and the remaining activity at 5 µM turned out to be 8.2 ± 0.7%.

On to `COc1cc(Cl)cc2c1OC[C@H](n1c(CCN)c[nH]c1=S)C2` [Compound 11, (R)-5-(2-aminoethyl)-1-(6-chloro-8-methoxychroman-3-yl)-1,3-dihydroimidazole-2-thione hydrochloride], for which the remaining activity at 5 µM was determined as 36.7 ± 4.4%.

As for `Cl.NCCc1c[nH]c(=S)n1[C@H]1COc2ccccc2C1` [Compound 12, (R)-5-(2-aminoethyl)-1-chroman-3-yl-1,3-dihydroimidazole-2-thione hydrochloride], the “inhibition of DβH activity (in words)” value is recorded as “markedly inhibit” and the remaining activity at 5 µM was determined as 3 ± 0.5%.

For the molecule `COc1cc(Cl)c2c(c1)C[C@@H](n1c(CCN)c[nH]c1=S)CO2` [Compound 13, (R)-5-(2-aminoethyl)-1-(6-methoxy-8-chlorochroman-3-yl)-1,3-dihydroimidazole-2-thione hydrochloride], the remaining activity at 5 µM was 94 ± 3.1%.

With `CC(=O)Nc1ccc2c(c1)C[C@@H](n1c(CCN)c[nH]c1=S)CO2` [Compound 14, (R)-5-(2-aminoethyl)-1-[6-(acetylamino)chroman-3-yl]-1,3-dihydroimidazole-2-thione hydrochloride], the remaining activity at 5 µM worked out at 77.9 ± 2.2%.

`NCCc1c[nH]c(=S)n1[C@H]1COc2cc(Cc3ccccc3)c(O)cc2C1` [Compound 15, (R)-5-(2-aminoethyl)-1-(6-hydroxy-7-benzylchroman-3-yl)-1,3-dihydroimidazole-2-thione hydrochloride]: the remaining activity at 5 µM was 86.1 ± 2.7%.

Turning to `Cl.NCCc1c[nH]c(=S)n1[C@H]1COc2ccc(O)cc2C1` [Compound 16, (R)-5-(2-aminoethyl)-1-(6-hydroxychroman-3-yl)-1,3-dihydroimidazole-2-thione hydrochloride], the “inhibition of DβH activity (in words)” value is reported as “markedly inhibit” and the remaining activity at 5 µM amounted to 0%.

Regarding `NCCc1c[nH]c(=S)n1[C@H]1COc2c(cccc2[N+](=O)[O-])C1` [Compound 17, (R)-5-(2-aminoethyl)-1-(8-nitrochroman-3-yl)-1,3-dihydroimidazole-2-thione hydrochloride], the remaining activity at 5 µM turned out to be 53.2 ± 3.9%.

On to `NCCc1c[nH]c(=S)n1[C@H]1COc2ccc([N+](=O)[O-])cc2C1` [Compound 18, (R)-5-(2-aminoethyl)-1-(6-nitrochroman-3-yl)-1,3-dihydroimidazole-2-thione hydrochloride], for which the remaining activity at 5 µM worked out at 94.8 ± 1.2%.

As to `COc1cccc2c1OC[C@H](n1c(CCN)c[nH]c1=S)C2.Cl` [Compound 19, (R)-5-(2-aminoethyl)-1-(8-methoxychroman-3-yl)-1,3-dihydroimidazole-2-thione hydrochloride], the “inhibition of DβH activity (in words)” value was “markedly inhibit” and the remaining activity at 5 µM worked out at 6.9 ± 0.5%.

Regarding `NCCc1c[nH]c(=S)n1[C@H]1CCc2ccccc2C1` [Compound 20, (S)-5-(2-aminoethyl)-1-(1,2,3,4-tetrahydronaphthalen-2-yl)-1,3-dihydroimidazole-2-thione hydrochloride], the remaining activity at 5 µM was 16.8 ± 4.8%.

Regarding `NCCc1c[nH]c(=S)n1[C@H]1COc2c(O)cccc2C1` [Compound 21, (R)-5-(2-aminoethyl)-1-(8-hydroxychroman-3-yl)-1,3-dihydroimidazole-2-thione hydrochloride], the remaining activity at 5 µM was 125 ± 6.5%.

Turning to `NCc1c[nH]c(=S)n1[C@H]1COc2ccc(O)cc2C1` [Compound 22, (R)-5-aminomethyl-1-(6-hydroxychroman-3-yl)-1,3-dihydroimidazole-2-thione hydrochloride], the remaining activity at 5 µM was 17.8 ± 2.1%.

Regarding `COc1ccc2c(c1)C[C@@H](n1c(CCN)c[nH]c1=S)CO2` [Compound 23, (R)-5-(2-aminoethyl)-1-(6-methoxychroman-3-yl)-1,3-dihydroimidazole-2-thione hydrochloride], the remaining activity at 5 µM was 54.5 ± 9.9%.

In the case of `Cl.NCc1c[nH]c(=S)n1[C@H]1COc2ccccc2C1` [Compound 24, (R)-5-aminomethyl-1-chroman-3-yl-1,3-dihydroimidazole-2-thione hydrochloride], the “inhibition of DβH activity (in words)” value was “markedly inhibit” and the remaining activity at 5 µM came to 0%.

Regarding `COc1ccc2c(c1)C[C@@H](n1c(CCNCc3ccccc3)c[nH]c1=S)CO2` [Compound 25, (R)-5-(2-Benzylaminoethyl)-1-(6-methoxychroman-3-yl)-1,3-dihydroimidazole-2-thione hydrochloride], the remaining activity at 5 µM turned out to be 66 ± 4.5%.

As to `Cl.Oc1ccc2c(c1)C[C@@H](n1c(CCNCc3ccccc3)c[nH]c1=S)CO2` [Compound 26, (R)-5-(2-Benzylaminoethyl)-1-(6-hydroxychroman-3-yl)-1,3-dihydroimidazole-2-thione hydrochloride], the “inhibition of DβH activity (in words)” value was “markedly inhibit” and the remaining activity at 5 µM worked out at 4.5 ± 1.9%.

Regarding `CNCCc1c[nH]c(=S)n1[C@H]1COc2ccc(O)cc2C1` [Compound 27, (R)-1-(6-Hydroxychroman-3-yl)-5-(2-methylaminoethyl)-1,3-dihydroimidazole-2-thione hydrochloride], the remaining activity at 5 µM turned out to be 15.5 ± 5.8%.

(Values after patent US7259271B2, “Peripherally-selective inhibitors of dopamine-β-hydroxylase and method of their preparation” (Portela & C.A., S.A., priority 2002, dated 2007).)
